According to patent US20150274777A1, “KETOAMIDE IMMUNOPROTEASOME INHIBITORS” (HOFFMANN-LA ROCHE INC., priority 2012, published 2015):

Columns and labels:
[1] = test system: IP10 level in PBMCs stimulated with CpG Type A; assay: PBMC IP-10 Assay; assay type: cell-based; details: CpG Type A 2.5 μM
Description: PBMCs were isolated from whole blood as follows: Blood was collected in a sterile environment in heparinized tubes. Blood was diluted with an equal volume PBS/2% FCS and 30 ml of this mixture was added to ACCUSPIN tubes containing 15 ml Histopaque-1077 already centrifuged at 800 g for 30 seconds and warmed up at room temperature. The tubes were then centrifuged at 800 g for 20 minutes at room temperature with no brake. The mononuclear band, just above the polyethylene frit, was removed by Pasteur pipet. These mononuclear cells were washed three times with sterile PBS, counted, and resuspended in RPMI 1640 supplemented with 10% heat inactivated fetal calf serum, 10 mM HEPES, 1 mM sodium pyruvate, penicillin (50 U/ml), streptomycin (50 μg/ml) and glutamine (2 mM) to approximately 1.5×10^6/ml. Approximately 2×10^5 cells/well were plated in 96 well tissue culture plates (BD Falcon 353072), and preincubated 60 mi/37° C. with a titration of compounds, in a final concentration of 1% DMSO. Cells were then stimulated with CpG Type A (Invivogen, Cat #tlrl-2216; ODN 2216) at a final concentration of 2.5 μM. Cells were incubated overnight, and supernatants were removed. PBMC viability of cells remaining in the well was measured with ATPlite luminescence assay (Perkin-Elmer) per the manufacturer's instructions. Luminescence was measured on the Perkin-Elmer Envision, using the luminescence filter. IP10 level was measured with CXCL10/IP10 AlphaLISA kit (Perkin-Elmer) per the manufacturer's instructions, except halving all volumes. Fluorescence was measured on the Envision Multilabel plate reader, using the AlphaScreen standard settings.

β2c/2i = assay: Cell-Based Proteasome Activity/Selectivity Assay (Ramos cells), substrate (KQL)2Rh110; details: highest concentration tested 20 μM
Excerpt: (§1) Cell-Based Proteasome Activity/Selectivity Assay
(§2) The Cell-Based Proteasome subunit activity/selectivity assay was a panel of 5 fluorogenic assays that independently measured the activity of β5c or β5i (chymotrypsin-like activity), β2c/2i (trypsin-like), and β1c or β1i (caspase-like) protease activity associated with the proteasome complex in cultured cells. Specifically, the following substrates were used for respective subunit activities: β1i: (PAL)2Rh110, β1c: (LLE)2 Rh110, β2c/2i: (KQL)2Rh110, β5c: (WLA)2Rh110, β5i: (ANW)2Rh110. The following procedure was followed:
(§3) Cell preparation: Plated 25 μl of Ramos cells (2×10^6/ml in DPBS) into half area plate (PerkinElmer Cat 6005569) to final 5×10^4 cells/well. Added 0.5 μl of 100×4-fold serial diluted test compounds or DMSO to each well. Highest concentration of compound tested was 20 μM, thus compound serial dilution started from […]. Incubated for 30 minutes at 37° C. Then equilibrated at room temperature for 15 minutes. Added 25 μl of 2× reaction mix consisting of 0.025% digitonin, 20 μM of each substrates and 0.5M sucrose in DPBS. Shaked for one minute @ 700 rpm. Incubated for 120 min at room temperature. Then read the plates with an Envision multilabel plate reader (PerkinElmer) with 500 nm excitation/519 nm emission.

β1c = target: T1, β1c (Homo sapiens, UniProt P28072+Q99436); assay: Cell-Based Proteasome Activity/Selectivity Assay (Ramos cells), substrate (LLE)2 Rh110; details: highest concentration tested 20 μM
T1 construct: protease activity associated with the proteasome complex in cultured cells; endogenous in cells; host or cells: Ramos cells
Excerpt: as §1, §2, §3

β5c = target: T2, β5c (Homo sapiens, UniProt P20618+P28074); assay: Cell-Based Proteasome Activity/Selectivity Assay (Ramos cells), substrate (WLA)2Rh110; details: highest concentration tested 20 μM
T2 construct: protease activity associated with the proteasome complex in cultured cells; endogenous in cells; host or cells: Ramos cells
Excerpt: as §1, §2, §3

β5i = target: T3, β5i (Homo sapiens, UniProt P20618+P28062); assay: Cell-Based Proteasome Activity/Selectivity Assay (Ramos cells), substrate (ANW)2Rh110; details: highest concentration tested 20 μM, read-out: Ic50 ramos:ac-(anw)2-r110
T3 construct: protease activity associated with the proteasome complex in cultured cells; endogenous in cells; host or cells: Ramos cells
Excerpt: as §1, §2, §3

β1i = target: T4, β1i (Homo sapiens, UniProt P28065+P40306); assay: Cell-Based Proteasome Activity/Selectivity Assay (Ramos cells), substrate (PAL)2Rh110; details: highest concentration tested 20 μM
T4 construct: protease activity associated with the proteasome complex in cultured cells; endogenous in cells; host or cells: Ramos cells
Excerpt: as §1, §2, §3

| SMILES | IC50 (β2c/2i) [nM] | IC50 (β1c) [nM] | IC50 (β5c) [nM] | IC50 (β5i) [nM] | IC50 (β1i) [nM] | EC50 [1] [nM] |
| --- | --- | --- | --- | --- | --- | --- |
| C[C@H](NC(=O)OCc1ccccc1)C(=O)NC(CC(F)(F)F)C(=O)N[C@@H](Cc1ccccc1)C(=O)C(=O)NCc1ccccc1 (stereo partly drawn) [Example 57, {(S)-1-[1-((S)-1-Benzyl-2-benzylcarbamoyl-2-oxo-ethylcarbamoyl)-3,3,3-trifluoro-propylcarbamoyl]-ethyl}-carbamic acid benzyl ester] | > 20000 | > 20000 | 6160 | 524 | 2730 | 5030 |
| CCCCC(NC(=O)[C@H](COC)NC(=O)[C@H](C)NC(=O)c1cc(C)on1)C(=O)C(=O)NCc1ccccc1 (mixture of isomers) [Example 6, 5-Methyl-isoxazole-3-carboxylic acid {(S)-1-[(S)-1-((S)-1-benzylaminooxalyl-pentylcarbamoyl)-2-methoxy-ethylcarbamoyl]-ethyl}-amide] | > 20000 | > 20000 | 5520 | 1040 | 949 | 13600 |
| COc1ccc(C[C@H](NC(=O)[C@H](C)NC(=O)c2cc(C)on2)C(=O)N[C@@H](Cc2ccccc2)C(=O)C(=O)NCc2ccccc2)cc1 [Example 21, 5-Methyl-isoxazole-3-carboxylic acid {(S)-1-[(S)-1-((S)-1-benzyl-2-benzylcarbamoyl-2-oxo-ethylcarbamoyl)-2-(4-methoxy-phenyl)-ethylcarbamoyl]-ethyl}-amide] | > 20000 | > 20000 | 765 | 7 | 210 | 3490 |
| C[C@H](NC(=O)OCc1ccccc1)C(=O)N[C@@H](Cc1ccc(Cl)cc1)C(=O)N[C@@H](Cc1ccccc1)C(=O)C(=O)NCc1ccccc1 [Example 51, {(S)-1-[(S)-1-((S)-1-Benzyl-2-benzylcarbamoyl-2-oxo-ethylcarbamoyl)-2-(4-chloro-phenyl)-ethylcarbamoyl]-ethyl}-carbamic acid benzyl ester] | > 20000 | > 20000 | 5180 | 21 | 9840 | 2590 |
| C[C@H](NC(=O)OCc1ccccc1)C(=O)NC(CC1CCOCC1)C(=O)N[C@@H](Cc1ccccc1)C(=O)C(=O)NCc1ccccc1 (stereo partly drawn) [Example 56, {(S)-1-[1-((S)-1-Benzyl-2-benzylcarbamoyl-2-oxo-ethylcarbamoyl)-2-(tetrahydro-pyran-4-yl)-ethylcarbamoyl]-ethyl}-carbamic acid benzyl ester] | > 20000 | > 20000 | 3120 | 115 | 879 | 3230 |
| C[C@H](NC(=O)C1Cc2ccccc2C1)C(=O)N[C@@H](Cc1ccccc1)C(=O)N[C@@H](Cc1ccccc1)C(=O)C(=O)NCc1ccccc1 [Example 43, Indan-2-carboxylic acid {(S)-1-[(S)-1-((S)-1-benzyl-2-benzylcarbamoyl-2-oxo-ethylcarbamoyl)-2-phenyl-ethylcarbamoyl]-ethyl}-amide] | > 20000 | 18300 | 192 | 3 | 257 | 784 |
| CC1=C(C(=O)N[C@@H](C)C(=O)N[C@@H](CCS(C)(=O)=O)C(=O)N[C@@H](Cc2ccccc2)C(=O)C(=O)NCc2ccccc2)Cc2ccccc21 [Example 20, 3-Methyl-1H-indene-2-carboxylic acid {(S)-1-[(S)-1-((S)-1-benzyl-2-benzylcarbamoyl-2-oxo-ethylcarbamoyl)-3-methanesulfonyl-propylcarbamoyl]-ethyl}-amide] | > 20000 | > 20000 | 157 | 15 | 738 | 1640 |
| COc1ccc(C[C@H](NC(=O)[C@H](C)NC(=O)C2Cc3ccccc3C2)C(=O)N[C@@H](Cc2ccccc2)C(=O)C(=O)NCc2ccccc2)cc1 [Example 19, Indan-2-carboxylic acid {(S)-1-[(S)-1-((S)-1-benzyl-2-benzylcarbamoyl-2-oxo-ethylcarbamoyl)-2-(4-methoxy-phenyl)-ethylcarbamoyl]-ethyl}-amide] | > 20000 | > 20000 | 55 | 3 | 234 | 695 |

The next lines start with results.

| IC50 (β2c/2i) [nM] | IC50 (β1c) [nM] | IC50 (β5c) [nM] | IC50 (β5i) [nM] | IC50 (β1i) [nM] | SMILES | EC50 [1] [nM] |
| --- | --- | --- | --- | --- | --- | --- |
| > 20000 | 6270 | 1390 | 34 | 705 | Cc1cc(C(=O)N[C@@H](C)C(=O)N[C@@H](Cc2c[nH]c3ccccc23)C(=O)N[C@@H](Cc2ccccc2)C(=O)C(=O)NCc2ccccc2)no1 [Example 47, 5-Methyl-isoxazole-3-carboxylic acid {(S)-1-[(S)-1-((S)-1-benzyl-2-benzylcarbamoyl-2-oxo-ethylcarbamoyl)-2-(1H-indol-3-yl)-ethylcarbamoyl]-ethyl}-amide] | 2290 |
| > 20000 | 13400 | 261 | 4 | 395 | COc1ccc(C[C@H](NC(=O)[C@H](C)NC(=O)CN2CCOc3ccccc32)C(=O)N[C@@H](Cc2ccccc2)C(=O)C(=O)NCc2ccccc2)cc1 [Example 35, (S)—N-Benzyl-3-[(S)-2-[(S)-2-(2-2,3-dihydro-benzo[1,4]oxazin-4-yl-acetylamino)-propionylamino]-3-(4-methoxy-phenyl)-propionylamino]-2-oxo-4-phenyl-butyramide] | 615 |
| > 20000 | > 20000 | 2890 | 266 | 1280 | C[C@H](NC(=O)OCc1ccccc1)C(=O)N[C@@H](Cc1ccccn1)C(=O)N[C@@H](Cc1ccccc1)C(=O)C(=O)NCc1ccccc1 [Example 50, {(S)-1-[(S)-1-((S)-1-Benzyl-2-benzylcarbamoyl-2-oxo-ethylcarbamoyl)-2-pyridin-2-yl-ethylcarbamoyl]-ethyl}-carbamic acid benzyl ester] | 2740 |
| > 20000 | 8700 | 2430 | 2080 | 661 | CCCC[C@H](NC(=O)[C@H](CC(C)C)NC(=O)[C@@H](NC(=O)CN1CCOCC1)C(C)(C)C)C(=O)C(=O)NCc1ccccc1 [Example 2, (S)-3-{(S)-2-[(S)-3,3-Dimethyl-2-(2-morpholin-4-yl-acetylamino)-butyrylamino]-4-methyl-pentanoylamino}-2-oxo-heptanoic acid benzylamide] | 12100 |
| > 20000 | 8430 | 3540 | 101 | 210 | CCCC[C@H](NC(=O)[C@H](CCS(C)(=O)=O)NC(=O)[C@H](C)NC(=O)C1=C(C)c2ccccc2C1)C(=O)C(=O)NCc1ccccc1 [Example 15, 3-Methyl-1H-indene-2-carboxylic acid {(S)-1-[(S)-1-((S)-1-benzylaminooxalyl-pentylcarbamoyl)-3-methanesulfonyl-propylcarbamoyl]-ethyl}-amide] | 1910 |
| > 20000 | 6380 | 250 | 13 | 496 | COc1ccc(C[C@H](NC(=O)[C@H](C)NC(=O)c2cc3ncccc3n2C)C(=O)N[C@@H](Cc2ccccc2)C(=O)C(=O)NCc2ccccc2)cc1 [Example 45] | 1320 |
| 7020 | 3280 | 173 | 5 | 441 | C[C@H](NC(=O)C1Cc2ccccc2C1)C(=O)N[C@@H](Cc1c[nH]c2ccccc12)C(=O)N[C@@H](Cc1ccccc1)C(=O)C(=O)NCc1ccccc1 [Example 18, Indan-2-carboxylic acid {(S)-1-[(S)-1-((S)-1-benzyl-2-benzylcarbamoyl-2-oxo-ethylcarbamoyl)-2-(1H-indol-3-yl)-ethylcarbamoyl]-ethyl}-amide] | 672 |
